System: male mice (NMRI)
Test: Formalin test on mice (second phase)
Assay type: in vivo
Details: dose 10.0 mg/kg
Procedure: The investigation to determine the antinociceptic action of the compounds according to the invention is carried out in the formalin test on male mice (NMRI, 20 bis 30 g body weight, Iffa, Credo, Belgium).
According to D. Dubuisson et al., Pain 1977, 4, 161-174, in the formalin test the first (early) phases ([…] after the formalin injection) and the second (late) phase (15 to 60 minutes after the formalin injection) are different. The early phase, which is a direct reaction to the formalin injection, represents a model of acute pain, whereas the late phase is regarded as a model of persistent (chronic) pain (T. J. Coderre et al., Pain 1993, 52, 259-285). The corresponding literature descriptions are hereby incorporated by way of reference and count as part of the disclosure.
The compounds according to the invention are investigated in the second phase of the formalin test, in order to obtain information on the effects of substances on chronic/inflammation pain.
The administration time of the compounds according to the invention before the formalin injection is selected depending on the type of administration of the compounds according to the invention. The intravenous administration of 10 mg/kg body weight of the test substances is carried out 5 minutes before the formalin injection. […]
The nociceptive behaviour is then continuously assessed by observing the animals for an investigation period of 3 minutes in the (second) late phase of the formalin test (21 to 24 minutes after the formalin injection). The pain behaviour is quantified by counting the time in seconds during which the animals licked and bit the affected paw during the investigation period.
The comparison is made in each case with control animals, which receive instead of the compounds according to the invention a neutral vehicle (0.9% aqueous sodium chloride solution) before the formalin injection. Based on the quantification of the pain behaviour, the effect of the substance in the formalin test is measured as the change compared to the corresponding control. […]

Compound	FTm, p.o. % effect @ dose (mg/kg) [% @10.0]
CC(C)(C)c1cc(CNC(=O)N2CCN(c3ncccc3Cl)CC2)n(-c2cccc(Cl)c2)n1 [Example 2, N-((3-tert-butyl-1-(3-chlorophenyl)-1H-pyrazol-5-yl)methyl)-4-(3-chloropyridin-2-yl)piperazine-1-carboxamide]	1

Same assay, conditions: dose 30.0 mg/kg

Compound	FTm, p.o. % effect @ dose (mg/kg) [% @30.0]
CC(C)(C)c1cc(CNC(=O)N2CCN(c3ncccc3Cl)CC2)n(-c2cccc(Cl)c2)n1 [Example 2, N-((3-tert-butyl-1-(3-chlorophenyl)-1H-pyrazol-5-yl)methyl)-4-(3-chloropyridin-2-yl)piperazine-1-carboxamide]	36

Same assay, conditions: dose 100.0 mg/kg

Compound	FTm, p.o. % effect @ dose (mg/kg) [% @100.0]
CC(C)(C)c1cc(CNC(=O)N2CCN(c3ncccc3Cl)CC2)n(-c2cccc(Cl)c2)n1 [Example 2, N-((3-tert-butyl-1-(3-chlorophenyl)-1H-pyrazol-5-yl)methyl)-4-(3-chloropyridin-2-yl)piperazine-1-carboxamide]	66

Molecular target: T1, vanilloid receptor 1 (VR1/TRPV1 receptor) (Homo sapiens, UniProt Q8NER1)
T1 construct: expressed in transfected cells; host or cells: CHO K1 cells (ECACC), stably transfected
Test: FLIPR assay, CHO K1 cells transfixed with the human VR1 gene, displacement of capsaicin (Pharmacological Method II)
Assay type: cell-based
Details: capsaicin (Cap) 100 nM, Ki from IC50 by Cheng-Prusoff
Procedure: In addition compounds according to the invention of the general formula (I) may be preferred, that in the FLIPR assay with CHO K1 cells that have been transfixed with the human VR1 gene effect in a concentration of less than 2000 nM, preferably less than 1000 nM, particularly preferably less than 300 nM, most particularly preferably less than 100 nM, even more preferably less than 75 nM, still most preferably less than 50 nM, and most of all preferably less than 10 nM, a 50% displacement of capsaicin that is present in a concentration of 100 nM.
In this connection the Ca^2+ inflow is quantified in the FLIPR assay with the aid of a Ca^2+-sensitive dye (Type Fluo-4, Molecular Probes Europe BV, Leiden, Netherlands) in a fluorescent imaging plate reader (FLIPR, Molecular Devices, Sunnyvale, USA), as described hereinafter.
The agonistic and antagonistic action of the substances to be investigated on the vanilloid receptor (VR1) can also be determined with the following assay. According to this assay the Ca^2+ inflow through the channel is quantified in the Fluorescent Imaging Plate Reader (FLIPR, Molecular Devices, Sunnyvale, USA) with the aid of a Ca^2+ sensitive dye (Type Fluo-4, Molecular Probes, Europe BV, Leiden, Netherlands).
Chinese hamster ovary cells (CHO K1 cells, European Collection of Cell Cultures (ECACC) Great Britain) are stably transfixed with the VR1 gene. For the functional investigations these cells are plated out on poly-D-lysine-coated, black 96-well plates with a clear floor (BD Biosciences, Heidelberg, Germany) in a density of 25,000 cells/well. The cells are incubated overnight at 37° C. and 5% CO2 in a culture medium (Nutrient Mixture ‘am's F12, 10 Vol % FCS (fetal calf serum), 18 μg/ml L-proline. The following day the cells are incubated with Fluo-4 (Fluo-4 2 μM, Pluronic F127 0.01 Vol %, Molecular Probes in HBSS (Hank's buffered saline solution), Gibco Invitrogen GmbH, Karlsruhe, Germany) for 30 minutes at 37° C. The plates are then washed 3 times with HBSS buffer and, after a further incubation for 15 minutes at RT, used in the FLIPR assay for the Ca^2+ measurement. The Ca^2+-dependent fluorescence is in this connection measured both before and after addition of the substances to be investigated (wavelength λex=488 nm, λem=540 nm). The quantification is carried out by measuring the highest fluorescence intensity (FC, Fluorescence Counts) over time.
The FLIPR protocol consists of 2 additions of substances. First of all the compounds to be tested (10 μM) are pipetted onto the cells and the Ca^2+ inflow is compared with the control (capsaicin 10 μM) (% activation referred to the Ca^2+ signal after addition of 10 μM capsaicin). After 5 minutes' incubation 100 nM capsaicin are added and the inflow of Ca^2+ is again determined.
Desensitising agonists and antagonists lead to a suppression of the Ca^2+ inflow. The % inhibition compared to the maximum achievable inhibition with 10 μM capsaicin is calculated.
Starting from the percentage displacement caused by different concentrations of the compounds of the general formula I to be tested, IC50 inhibiting concentrations that produce a 50% displacement of capsaicin were calculated. K, values for the test substances were obtained by reconversion using the (Cheng, Prusoff; Biochem. Pharmacol. 22, 3099-3108, 1973) relationship.

T1 sequence (Q8NER1 whole entry): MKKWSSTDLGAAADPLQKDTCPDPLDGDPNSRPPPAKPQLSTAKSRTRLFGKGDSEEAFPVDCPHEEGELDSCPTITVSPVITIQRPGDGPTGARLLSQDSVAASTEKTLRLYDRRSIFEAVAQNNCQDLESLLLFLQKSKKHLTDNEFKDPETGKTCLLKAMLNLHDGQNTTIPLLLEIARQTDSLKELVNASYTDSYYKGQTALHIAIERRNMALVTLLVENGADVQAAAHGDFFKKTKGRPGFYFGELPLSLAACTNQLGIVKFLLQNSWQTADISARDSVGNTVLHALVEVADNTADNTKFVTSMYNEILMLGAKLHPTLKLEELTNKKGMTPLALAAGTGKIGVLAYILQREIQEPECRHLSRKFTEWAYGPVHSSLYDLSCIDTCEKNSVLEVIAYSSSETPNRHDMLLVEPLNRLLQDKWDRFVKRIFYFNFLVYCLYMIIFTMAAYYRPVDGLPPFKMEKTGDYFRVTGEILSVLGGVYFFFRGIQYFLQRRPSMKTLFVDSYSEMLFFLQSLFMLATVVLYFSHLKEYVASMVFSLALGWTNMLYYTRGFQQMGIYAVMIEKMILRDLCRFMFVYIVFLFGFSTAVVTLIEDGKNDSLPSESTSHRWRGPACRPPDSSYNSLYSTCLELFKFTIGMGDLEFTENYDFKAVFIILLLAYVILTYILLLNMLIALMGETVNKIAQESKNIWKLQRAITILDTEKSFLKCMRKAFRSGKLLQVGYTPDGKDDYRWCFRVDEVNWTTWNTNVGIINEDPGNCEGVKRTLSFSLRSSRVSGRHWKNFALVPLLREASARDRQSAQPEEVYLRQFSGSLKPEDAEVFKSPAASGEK

Compound	Ki [nM]
O=C(NCc1cc(C2CC2)nn1-c1cccc(Cl)c1)N1CCN(c2ncccc2Cl)CC1 [Example 10, N-((1-(3-chlorophenyl)-3-cyclopropyl-1H-pyrazol-5-yl)methyl)-4-(3-chloropyridin-2-yl)piperazine-1-carboxamide]	85
CCCCCn1nc(C(F)(F)F)cc1CNC(=O)N1CCN(c2ncccc2Cl)CC1 [Example 12, 4-(3-chloropyridin-2-yl)-N-((1-pentyl-3-(trifluoromethyl)-1H-pyrazol-5-yl)methyl)piperazine-1-carboxamide]	68
O=C(NCc1cc(C(F)(F)F)nn1-c1cccc(Cl)c1)N1CCN(c2ccccc2F)CC1 [Example 46, N-((1-(3-chlorophenyl)-3-(trifluoromethyl)-1H-pyrazol-5-yl)methyl)-4-(2-fluorophenyl)piperazine-1-carboxamide]	45
O=C(NCc1cc(C(F)(F)F)nn1-c1cccc(Cl)c1)N1CCN(c2ccc(F)cc2)CC1 [Example 47, N-((1-(3-chlorophenyl)-3-(trifluoromethyl)-1H-pyrazol-5-yl)methyl)-4-(4-fluorophenyl)piperazine-1-carboxamide]	48
COc1ccccc1N1CCN(C(=O)NCc2cc(C(F)(F)F)nn2-c2cccc(Cl)c2)CC1 [Example 48, N-((1-(3-chlorophenyl)-3-(trifluoromethyl)-1H-pyrazol-5-yl)methyl)-4-(2-methoxyphenyl)piperazine-1-carboxamide]	61
COc1ccc(N2CCN(C(=O)NCc3cc(C(F)(F)F)nn3-c3cccc(Cl)c3)CC2)cc1 [Example 50, N-((1-(3-chlorophenyl)-3-(trifluoromethyl)-1H-pyrazol-5-yl)methyl)-4-(4-methoxyphenyl)piperazine-1-carboxamide]	63
CC(C)(C)c1cc(CNC(=O)N2CCN(c3cccc(Cl)c3)CC2)n(-c2cccc(Cl)c2)n1 [Example 52, N-((3-tert-butyl-1-(3-chlorophenyl)-1H-pyrazol-5-yl)methyl)-4-(3-chlorophenyl)piperazine-1-carboxamide]	36
CC(C)(C)c1cc(CNC(=O)N2CCN(c3ccc(Cl)cc3)CC2)n(-c2cccc(Cl)c2)n1 [Example 53, N-((3-tert-butyl-1-(3-chlorophenyl)-1H-pyrazol-5-yl)methyl)-4-(4-chlorophenyl)piperazine-1-carboxamide]	42
O=C(NCc1cc(C(F)(F)F)nn1-c1cccc(Cl)c1)N1CCN(c2ccc(Cl)cc2)CC1 [Example 54, 4-(4-chlorophenyl)-N-((1-(3-chlorophenyl)-3-(trifluoromethyl)-1H-pyrazol-5-yl)methyl)piperazine-1-carboxamide]	56
N-((1-(3-chlorophenyl)-3-(trifluoromethyl)-1H-pyrazol-5-yl)methyl)-4-(1-(4-fluorophenyl)ethyl)piperazine-1-carboxamide [Example 22]	41

The next lines start with the values.

Ki [nM]	Compound
10	CC(C)(C)c1cc(CNC(=O)N2CCN(c3ncccc3Cl)CC2)n(-c2cccc(Cl)c2)n1 [Example 2, N-((3-tert-butyl-1-(3-chlorophenyl)-1H-pyrazol-5-yl)methyl)-4-(3-chloropyridin-2-yl)piperazine-1-carboxamide]
14	O=C(NCc1cc(C(F)(F)F)nn1-c1cccc(Cl)c1)N1CCN(c2ncccc2Cl)CC1 [Example 3, N-((1-(3-chlorophenyl)-3-(trifluoromethyl)-1H-pyrazol-5-yl)methyl)-4-(3-chloropyridin-2-yl)piperazine-1-carboxamide]
5	CC(C)(C)c1cc(CNC(=O)N2CCN(c3ccccc3F)CC2)n(-c2cccc(Cl)c2)n1 [Example 5, N-((3-tert-butyl-1-(3-chlorophenyl)-1H-pyrazol-5-yl)methyl)-4-(2-fluorophenyl)piperazine-1-carboxamide]
16	Cc1c(C(F)(F)F)nn(-c2cccc(Cl)c2)c1CNC(=O)N1CCN(c2ncccc2Cl)CC1 [Example 9, N-((1-(3-chlorophenyl)-4-methyl-3-(trifluoromethyl)-1H-pyrazol-5-yl)methyl)-4-(3-chloropyridin-2-yl)piperazine-1-carboxamide]
27	O=C(NCc1cc(C(F)(F)F)nn1-c1cccc(Cl)c1)N1CCC(c2ccccc2)CC1 [Example 26, N-((1-(3-chlorophenyl)-3-(trifluoromethyl)-1H-pyrazol-5-yl)methyl)-4-phenylpiperidine-1-carboxamide]
27	O=C(NCc1cc(C(F)(F)F)nn1-c1cccc(Cl)c1)N1CC=C(c2ccc(F)cc2)CC1 [Example 34, N-((1-(3-chlorophenyl)-3-(trifluoromethyl)-1H-pyrazol-5-yl)methyl)-4-(4-fluorophenyl)-5,6-dihydropyridine-1(2H)-carboxamide]
35	COc1cccc(N2CCN(C(=O)NCc3cc(C(F)(F)F)nn3-c3cccc(Cl)c3)CC2)c1 [Example 49, N-((1-(3-chlorophenyl)-3-(trifluoromethyl)-1H-pyrazol-5-yl)methyl)-4-(3-methoxyphenyl)piperazine-1-carboxamide]
7	O=C(NCc1cc(C(F)(F)F)nn1-c1cccc(Cl)c1)N1CCN(c2ccccc2Cl)CC1 [Example 51, 4-(2-chlorophenyl)-N-((1-(3-chlorophenyl)-3-(trifluoromethyl)-1H-pyrazol-5-yl)methyl)piperazine-1-carboxamide]
4	O=C(NCc1cc(C(F)(F)F)nn1-c1cccc(Cl)c1)N1CCN(c2ncccc2C(F)(F)F)CC1 [Example 56, N-((1-(3-chlorophenyl)-3-(trifluoromethyl)-1H-pyrazol-5-yl)methyl)-4-(3-(trifluoromethyl)pyridin-2-yl)piperazine-1-carboxamide]
